Reference: PubChem BioAssay (NCI)
Values joined by “and” are separate entries in the source; they are usually repeats but may differ in a detail not shown here. Equal values may be shown once.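 Assay format: 96-well plates, 48-hour exposure. GI50: concentration for 50% inhibition of growth. TGI: concentration producing complete growth inhibition.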

What was measured:
Assay in all cases: NCI tumour cell line growth inhibition, 48 h
SNB-75 CNS = test system: SNB-75 CNS
DU-145 prostate = test system: DU-145 prostate
MCF7 breast = test system: MCF7 breast
U251 CNS = test system: U251 CNS
HS 578T breast = test system: HS 578T breast
A549 NSCLC = test system: A549 NSCLC
EKVX NSCLC = test system: EKVX NSCLC
SN12C renal = test system: SN12C renal
UACC-62 melanoma = test system: UACC-62 melanoma
HT29 colon = test system: HT29 colon

Compound	GI50 (SNB-75 CNS)	TGI (SNB-75 CNS)	GI50 (DU-145 prostate)	TGI (DU-145 prostate)	GI50 (MCF7 breast)	TGI (MCF7 breast)	GI50 (U251 CNS)	TGI (U251 CNS)	GI50 (HS 578T breast)	TGI (HS 578T breast)	GI50 (A549 NSCLC)	TGI (A549 NSCLC)	GI50 (EKVX NSCLC)	TGI (EKVX NSCLC)	GI50 (SN12C renal)	TGI (SN12C renal)	GI50 (UACC-62 melanoma)	TGI (UACC-62 melanoma)	GI50 (HT29 colon) [nM]	TGI (HT29 colon)
C=C1C(=O)O[C@@H]2C1C[C@@H](O)C(=C)CC/C=C(\C)CCC[C@H](C)[C@H]2OC(C)=O (stereo partly specified)	13900 nM	33.6 µM	11.9 µM	25.3 µM	3.04 µM	18.5 µM	5.83 µM	23.3 µM	10.3 µM	27.7 µM	22.9 µM	48.8 µM	12 µM	25.6 µM	3500 nM	15.3 µM	7450 nM	21.7 µM	4170	> 100 µM
CC(=O)[C@@]1(O)[C@H](C)C[C@H]2[C@@H]3C=C(C)C4=Cc5c(cnn5-c5ccccc5)C[C@]4(C)[C@H]3[C@@H](O)C[C@@]21C	2650 nM	11 µM	3.24 µM	14 µM	1.97 µM	11 µM	1.51 µM	6.23 µM	2.97 µM	12.9 µM	1.82 µM	13.9 µM	1.25 µM	11.4 µM	1400 nM	12.4 µM	2240 nM	5.76 µM	946	4.38 µM
CC(=O)Oc1cc2c(OC(C)=O)c(-c3c(C)cc4c(C(C)C)c(OC(C)=O)c(OC(C)=O)cc4c3OC(C)=O)c(C)cc2c(C(C)C)c1OC(C)=O	2320 nM and 13700 nM and 16300 nM	24.9 µM and > 52.7 µM and 62.8 µM	5.3 µM and 5.17 µM and 9.94 µM	11.1 µM and 10.2 µM and 23.6 µM	6.42 µM and 7.03 µM and 10.3 µM	19.5 µM and 21.5 µM and 27.1 µM	4.84 µM and 4.85 µM and 9.43 µM	9.38 µM and 24.7 µM and 35.7 µM	18.7 µM and 20.1 µM and 8.85 µM	49.8 µM and 55.2 µM and 21.6 µM	14.7 µM and 5.12 µM and 9.61 µM	30.7 µM and 9.92 µM and 22.2 µM	4.82 µM and 4.81 µM and 9.21 µM	10.6 µM and 9.92 µM and 26.7 µM	1210 nM and 1220 nM and 6110 nM	2.44 µM and 8.04 µM and 12.8 µM	1030 nM and 4380 nM and 5540 nM	2.2 µM and 8.65 µM and 11.7 µM	–	40.2 µM and > 74.8 µM and 62.7 µM
O=S(=O)(Nc1cc(Cl)ccc1Cl)c1ccc(-c2cnc(C3CC3)o2)cc1	475 nM	3.88 µM	3.72 µM	> 100 µM	0.557 µM	> 100 µM	2 µM	68.2 µM	0.701 µM	24 µM	1.66 µM	> 100 µM	5.24 µM	85.4 µM	4320 nM	> 100 µM	399 nM	23.9 µM	654	13.5 µM
CC[C@@]1(O)C(=O)OCc2c1cc1n(c2=O)Cc2c-1nc1cc3c(cc1c2C)OCO3	1.23 nM	0.947 µM	< 0.0001 µM	> 100 µM	< 0.0001 µM	0.299 µM	< 0.0001 µM	–	37.4 µM	> 100 µM	< 0.0001 µM	0.0737 µM	–	0.818 µM	< 0.1 nM	27 µM	< 0.1 nM	0.0143 µM	< 0.1	> 100 µM
C/C(=C(\c1ccc(OCCN2CCCCCC2)cc1)c1ccc(OC(=O)Cc2ccccc2)cc1)c1ccc(Cl)cc1	2300 nM	5.33 µM	3.15 µM	6.32 µM	0.382 µM	3.83 µM	2.59 µM	5.03 µM	2.86 µM	6.52 µM	2.7 µM	5.41 µM	2.6 µM	7.8 µM	2560 nM	5.07 µM	2730 nM	5.2 µM	1050	4.01 µM
CSc1ncnc2c1ncn2C1OC(CO)C(O)OC1O (stereo unspecified)	–	31.8 µM	–	39.4 µM	–	> 100 µM	–	30.1 µM	–	> 100 µM	–	> 100 µM	–	> 66.3 µM	–	41.3 µM	–	18.5 µM	–	> 37.4 µM
S=C(N/N=C(/c1ccccc1)c1ccccn1)N1CCCCCC1	660 nM	2.04 µM and 1.95 µM	1.03 µM	2.19 µM and 2.15 µM	< 0.001 µM	0.194 µM and 1.56 µM	0.00287 µM	1.22 µM and 1.27 µM	1.54 µM	7.58 µM and 7.59 µM	0.0318 µM	1.7 µM and 2.25 µM	0.641 µM	1.94 µM and 0.365 µM	–	1.91 µM	390 nM	3.73 µM and 0.78 µM	7.24	3.41 µM and 1.8 µM
COC(=O)/C=C/c1cn(C(C)=O)c2ccc(Br)cc12	16100 nM	55.2 µM	32.5 µM	> 100 µM	15.7 µM	> 100 µM	28.2 µM	> 100 µM	22 µM	76.2 µM	33.8 µM	> 100 µM	28.2 µM	> 100 µM	31600 nM	> 100 µM	30700 nM	> 100 µM	27500	> 100 µM
